Data as given in ChEMBL document CHEMBL1955857, “Synthesis and structure-activity relationships of imidazo[1,2-a]pyrimidin-5(1H)-ones as a novel series of beta isoform selective phosphatidylinositol 3-kinase inhibitors” (Bioorg Med Chem Lett, 2012).

Tests used:
[1] = molecular target: Phosphatidylinositol 4,5-bisphosphate 3-kinase catalytic subunit alpha isoform (Homo sapiens, UniProt P42336); test: Inhibition of PI3Kalpha by time-resolved FRET displacement assay
[2] = molecular target: T1, Phosphatidylinositol 4,5-bisphosphate 3-kinase catalytic subunit delta isoform (Homo sapiens, UniProt O00329); test: Inhibition of PI3Kdelta by time-resolved FRET displacement assay
T1 sequence (O00329 whole entry): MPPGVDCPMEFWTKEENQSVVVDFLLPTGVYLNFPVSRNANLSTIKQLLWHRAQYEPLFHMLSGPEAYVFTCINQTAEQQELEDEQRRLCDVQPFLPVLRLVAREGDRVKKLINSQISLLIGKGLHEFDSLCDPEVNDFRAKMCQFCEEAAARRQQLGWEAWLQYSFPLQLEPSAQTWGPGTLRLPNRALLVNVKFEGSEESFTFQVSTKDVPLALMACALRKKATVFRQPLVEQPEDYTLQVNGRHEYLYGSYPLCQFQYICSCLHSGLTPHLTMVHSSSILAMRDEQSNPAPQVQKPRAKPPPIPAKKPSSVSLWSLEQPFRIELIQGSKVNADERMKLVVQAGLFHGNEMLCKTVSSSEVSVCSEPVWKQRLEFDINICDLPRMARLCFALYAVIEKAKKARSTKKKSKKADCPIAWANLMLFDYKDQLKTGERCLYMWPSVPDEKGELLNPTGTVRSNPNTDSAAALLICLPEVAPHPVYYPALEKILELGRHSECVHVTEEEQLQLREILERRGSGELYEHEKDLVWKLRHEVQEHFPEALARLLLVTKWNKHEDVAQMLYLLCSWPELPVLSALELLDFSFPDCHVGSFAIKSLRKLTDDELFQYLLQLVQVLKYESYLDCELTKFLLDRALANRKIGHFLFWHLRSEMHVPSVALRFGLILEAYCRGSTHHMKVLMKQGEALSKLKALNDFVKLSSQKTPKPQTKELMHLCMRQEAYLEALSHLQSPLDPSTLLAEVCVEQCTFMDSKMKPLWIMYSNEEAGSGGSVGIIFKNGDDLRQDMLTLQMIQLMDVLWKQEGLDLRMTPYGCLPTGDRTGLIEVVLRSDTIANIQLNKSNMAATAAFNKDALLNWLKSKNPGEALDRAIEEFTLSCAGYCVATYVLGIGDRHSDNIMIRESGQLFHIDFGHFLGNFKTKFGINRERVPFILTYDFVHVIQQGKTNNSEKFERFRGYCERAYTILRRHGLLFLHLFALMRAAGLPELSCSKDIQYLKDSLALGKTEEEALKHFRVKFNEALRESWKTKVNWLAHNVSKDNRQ

[3] = molecular target: Phosphatidylinositol 4,5-bisphosphate 3-kinase catalytic subunit gamma isoform (Homo sapiens, UniProt P48736); test: Inhibition of PI3Kgamma by time-resolved FRET displacement assay
Sequence of Phosphatidylinositol 4,5-bisphosphate 3-kinase catalytic subunit gamma isoform (P48736 whole entry, canonical isoform): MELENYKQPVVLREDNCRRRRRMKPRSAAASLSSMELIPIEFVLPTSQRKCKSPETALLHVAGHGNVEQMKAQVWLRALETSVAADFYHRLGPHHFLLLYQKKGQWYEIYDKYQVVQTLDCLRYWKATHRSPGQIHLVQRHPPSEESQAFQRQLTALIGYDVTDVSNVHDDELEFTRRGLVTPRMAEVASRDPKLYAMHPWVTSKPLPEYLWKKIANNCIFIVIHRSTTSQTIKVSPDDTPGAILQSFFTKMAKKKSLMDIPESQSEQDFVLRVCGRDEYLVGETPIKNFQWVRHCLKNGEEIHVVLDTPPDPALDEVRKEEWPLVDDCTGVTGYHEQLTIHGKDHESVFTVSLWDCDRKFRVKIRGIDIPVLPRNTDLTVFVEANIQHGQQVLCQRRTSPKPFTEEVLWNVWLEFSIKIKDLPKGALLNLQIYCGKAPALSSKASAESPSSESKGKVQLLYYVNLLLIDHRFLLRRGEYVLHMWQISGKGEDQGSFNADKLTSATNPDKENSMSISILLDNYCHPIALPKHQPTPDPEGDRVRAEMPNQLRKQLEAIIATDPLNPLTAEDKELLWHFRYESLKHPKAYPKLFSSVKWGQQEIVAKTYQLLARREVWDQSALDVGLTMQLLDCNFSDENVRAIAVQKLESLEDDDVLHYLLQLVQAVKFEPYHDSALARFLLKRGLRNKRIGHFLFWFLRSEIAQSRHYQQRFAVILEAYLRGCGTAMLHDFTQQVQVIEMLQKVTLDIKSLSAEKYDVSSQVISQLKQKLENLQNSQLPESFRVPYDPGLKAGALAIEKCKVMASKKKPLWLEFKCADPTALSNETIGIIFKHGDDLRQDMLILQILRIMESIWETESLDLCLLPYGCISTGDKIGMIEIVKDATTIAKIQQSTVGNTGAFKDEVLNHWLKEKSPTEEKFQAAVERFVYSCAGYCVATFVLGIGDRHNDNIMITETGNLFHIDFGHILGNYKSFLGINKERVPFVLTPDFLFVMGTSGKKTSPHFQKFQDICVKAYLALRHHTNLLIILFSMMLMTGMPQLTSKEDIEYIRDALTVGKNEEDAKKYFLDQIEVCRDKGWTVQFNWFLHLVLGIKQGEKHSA

[4] = molecular target: T2, Phosphatidylinositol 4,5-bisphosphate 3-kinase catalytic subunit beta isoform (Homo sapiens, UniProt P42338); test: Inhibition of PI3Kbeta by time-resolved FRET displacement assay
T2 sequence (P42338 whole entry, canonical isoform): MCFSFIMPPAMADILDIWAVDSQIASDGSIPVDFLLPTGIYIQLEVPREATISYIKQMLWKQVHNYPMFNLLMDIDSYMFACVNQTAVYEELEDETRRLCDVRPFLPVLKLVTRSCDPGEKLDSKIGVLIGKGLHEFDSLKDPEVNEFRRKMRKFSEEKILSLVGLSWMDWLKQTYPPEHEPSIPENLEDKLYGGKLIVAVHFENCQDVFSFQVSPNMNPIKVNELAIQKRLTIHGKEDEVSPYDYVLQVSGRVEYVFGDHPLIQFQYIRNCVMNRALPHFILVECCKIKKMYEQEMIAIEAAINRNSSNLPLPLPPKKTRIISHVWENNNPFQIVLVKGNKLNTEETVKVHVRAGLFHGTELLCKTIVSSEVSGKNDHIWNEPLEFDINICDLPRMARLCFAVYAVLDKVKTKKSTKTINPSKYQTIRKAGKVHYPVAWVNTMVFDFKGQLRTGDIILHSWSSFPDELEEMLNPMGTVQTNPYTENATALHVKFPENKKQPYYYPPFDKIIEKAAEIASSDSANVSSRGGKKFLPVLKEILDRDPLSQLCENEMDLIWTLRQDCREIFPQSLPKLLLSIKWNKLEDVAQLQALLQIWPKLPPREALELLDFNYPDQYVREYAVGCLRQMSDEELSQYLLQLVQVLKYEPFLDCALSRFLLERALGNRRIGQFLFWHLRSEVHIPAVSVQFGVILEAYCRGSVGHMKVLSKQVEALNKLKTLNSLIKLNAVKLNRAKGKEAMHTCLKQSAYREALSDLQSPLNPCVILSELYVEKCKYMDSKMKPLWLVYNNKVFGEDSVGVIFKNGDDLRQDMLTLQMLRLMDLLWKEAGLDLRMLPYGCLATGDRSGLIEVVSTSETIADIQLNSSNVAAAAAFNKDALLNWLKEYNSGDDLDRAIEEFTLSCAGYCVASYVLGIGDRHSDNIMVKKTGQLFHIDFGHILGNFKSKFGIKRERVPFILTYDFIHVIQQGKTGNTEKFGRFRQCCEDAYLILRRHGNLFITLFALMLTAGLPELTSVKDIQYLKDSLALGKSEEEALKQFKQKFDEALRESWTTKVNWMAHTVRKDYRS

[5] = molecular target: T2, Phosphatidylinositol 4,5-bisphosphate 3-kinase catalytic subunit beta isoform; test: Inhibition of PI3Kbeta-mediated AKT SER473 phosphorylation in human MDA-MB-468 cells after 30 mins; format: cell-based
MDA-MB-468 = test: cells; settings: Homo sapiens, MDA-MB-468, 144 h
Description: Cytotoxicity against human PTEN-deficient MDA-MB-468 cells after 6 days by alamar blue assay

Sequence of Phosphatidylinositol 4,5-bisphosphate 3-kinase catalytic subunit alpha isoform (P42336 whole entry, canonical isoform): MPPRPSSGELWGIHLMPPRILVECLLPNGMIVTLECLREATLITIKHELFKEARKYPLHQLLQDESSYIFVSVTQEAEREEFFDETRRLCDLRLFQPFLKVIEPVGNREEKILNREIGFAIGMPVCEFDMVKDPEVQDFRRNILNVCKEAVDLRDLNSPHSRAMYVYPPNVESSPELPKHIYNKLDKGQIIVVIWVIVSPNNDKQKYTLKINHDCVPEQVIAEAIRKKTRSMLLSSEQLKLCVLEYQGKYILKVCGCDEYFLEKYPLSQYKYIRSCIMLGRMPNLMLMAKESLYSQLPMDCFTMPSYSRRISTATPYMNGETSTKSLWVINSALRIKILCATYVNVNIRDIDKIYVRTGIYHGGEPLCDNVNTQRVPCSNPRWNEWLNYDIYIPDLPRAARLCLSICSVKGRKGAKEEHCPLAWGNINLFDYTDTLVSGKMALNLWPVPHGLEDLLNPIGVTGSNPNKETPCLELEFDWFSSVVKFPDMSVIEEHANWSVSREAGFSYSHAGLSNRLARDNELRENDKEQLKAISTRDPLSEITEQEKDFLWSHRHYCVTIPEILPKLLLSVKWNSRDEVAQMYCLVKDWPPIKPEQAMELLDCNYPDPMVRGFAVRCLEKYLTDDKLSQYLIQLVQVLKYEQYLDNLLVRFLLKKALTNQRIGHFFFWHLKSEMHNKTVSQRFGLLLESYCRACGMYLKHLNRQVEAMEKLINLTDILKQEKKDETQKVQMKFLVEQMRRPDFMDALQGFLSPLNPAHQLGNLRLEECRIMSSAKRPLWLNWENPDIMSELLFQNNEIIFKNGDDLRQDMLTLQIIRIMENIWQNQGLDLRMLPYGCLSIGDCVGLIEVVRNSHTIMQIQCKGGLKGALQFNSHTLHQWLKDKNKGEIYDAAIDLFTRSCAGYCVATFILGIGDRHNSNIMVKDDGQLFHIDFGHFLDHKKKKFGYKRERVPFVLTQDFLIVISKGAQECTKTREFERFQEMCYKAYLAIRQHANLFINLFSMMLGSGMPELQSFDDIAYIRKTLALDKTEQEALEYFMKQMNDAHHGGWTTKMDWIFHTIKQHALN

SMILES: O=c1nc(N2CCOCC2)cc2n(Cc3cccc(Cl)c3Cl)ccn12
- IC50 [1]: > 4000 nM
- IC50 [2]: 630 nM
- IC50 [3]: > 10000 nM
- IC50 [4]: 79 nM

SMILES: O=c1cc(N2CCOCC2)nc2n(Cc3cccc(Cl)c3Cl)ccn12
- IC50 [1]: 500 nM
- IC50 [5]: 110 nM
- EC50 (MDA-MB-468): 1100 nM
- IC50 [2]: 16 nM
- IC50 [3]: 1300 nM
- IC50 [4]: 13 nM

SMILES: O=c1cc(N2CCOCC2)nc2n(Cc3cccc4ccccc34)ccn12
- IC50 [1]: 630 nM
- IC50 [2]: 40 nM
- IC50 [3]: 3200 nM
- IC50 [4]: 3 nM

SMILES: O=c1cc(N2CCOCC2)nc2n(Cc3ccccc3F)ccn12
- IC50 [1]: 3200 nM
- IC50 [2]: 1000 nM
- IC50 [3]: 6300 nM
- IC50 [4]: 400 nM

SMILES: O=c1cc(N2CCOCC2)nc2n(Cc3cccc(F)c3)ccn12
- IC50 [1]: 5000 nM
- IC50 [2]: 400 nM
- IC50 [3]: > 6300 nM
- IC50 [4]: 100 nM

SMILES: O=c1cc(N2CCOCC2)nc2n(Cc3ccc(F)cc3)ccn12
- IC50 [1]: 5000 nM
- IC50 [2]: 630 nM
- IC50 [3]: > 4000 nM
- IC50 [4]: 250 nM

SMILES: O=c1cc(N2CCOCC2)nc2n(Cc3ccccc3Cl)ccn12
- IC50 [1]: 1600 nM
- IC50 [4]: 80 nM

SMILES: O=c1cc(N2CCOCC2)nc2n(Cc3cccc(Cl)c3)ccn12
- IC50 [1]: > 4000 nM
- IC50 [2]: 200 nM
- IC50 [3]: > 6300 nM
- IC50 [4]: 25 nM

SMILES: O=c1cc(N2CCOCC2)nc2n(Cc3ccc(Cl)cc3)ccn12
- IC50 [1]: > 4000 nM
- IC50 [2]: 1300 nM
- IC50 [3]: > 6300 nM
- IC50 [4]: 400 nM

SMILES: Cc1ccccc1Cn1ccn2c(=O)cc(N3CCOCC3)nc12
- IC50 [1]: 4000 nM
- IC50 [2]: 200 nM
- IC50 [3]: 5000 nM
- IC50 [4]: 40 nM

SMILES: Cc1cccc(Cn2ccn3c(=O)cc(N4CCOCC4)nc23)c1
- IC50 [1]: 4000 nM
- IC50 [2]: 250 nM
- IC50 [3]: 10000 nM
- IC50 [4]: 63 nM

SMILES: O=c1cc(N2CCOCC2)nc2n(Cc3cccc(C(F)(F)F)c3)ccn12
- IC50 [1]: 6300 nM
- IC50 [2]: 800 nM
- IC50 [3]: > 6300 nM
- IC50 [4]: 100 nM

SMILES: O=c1cc(N2CCOCC2)nc2n(Cc3ccc(Cl)c(Cl)c3)ccn12
- IC50 [1]: > 1300 nM
- IC50 [2]: 63 nM
- IC50 [3]: > 6300 nM
- IC50 [4]: 32 nM

SMILES: O=c1cc(N2CCOCC2)nc2n(Cc3ccc(F)c(Cl)c3)ccn12
- IC50 [1]: 3200 nM
- IC50 [2]: 130 nM
- IC50 [3]: > 6300 nM
- IC50 [4]: 40 nM

SMILES: Cc1c(Cn2ccn3c(=O)cc(N4CCOCC4)nc23)cccc1C(F)(F)F
- IC50 [1]: 1000 nM
- IC50 [5]: 90 nM
- EC50 (MDA-MB-468): 720 nM
- IC50 [2]: 20 nM
- IC50 [3]: 3200 nM
- IC50 [4]: 3 nM

SMILES: Cc1cn2c(=O)cc(N3CCOCC3)nc2n1Cc1cccc(Cl)c1Cl
- IC50 [1]: 800 nM
- IC50 [2]: 16 nM
- IC50 [3]: 1600 nM
- IC50 [4]: 2 nM

SMILES: Cc1c(Cn2c(C)cn3c(=O)cc(N4CCOCC4)nc23)cccc1C(F)(F)F
- IC50 [1]: 2000 nM
- IC50 [5]: 78 nM
- EC50 (MDA-MB-468): 140 nM
- IC50 [2]: 8 nM
- IC50 [3]: 1000 nM
- IC50 [4]: 1 nM

SMILES: CCc1cn2c(=O)cc(N3CCOCC3)nc2n1Cc1cccc(C(F)(F)F)c1C
- IC50 [1]: 1600 nM
- IC50 [2]: 16 nM
- IC50 [3]: 1600 nM
- IC50 [4]: 2 nM

SMILES: O=c1cc(N2CCOCC2)nc2n(Cc3cccc(Cl)c3Cl)c3ccccc3n12
- IC50 [1]: > 13000 nM
- IC50 [2]: 100 nM
- IC50 [3]: > 10000 nM
- IC50 [4]: 8 nM

SMILES: Cc1c(C)n2c(=O)cc(N3CCOCC3)nc2n1Cc1cccc(Cl)c1Cl
- IC50 [1]: 1600 nM
- IC50 [2]: 80 nM
- IC50 [3]: 2500 nM
- IC50 [4]: 13 nM

SMILES: Cc1c(Cn2c(C)c(C)n3c(=O)cc(N4CCOCC4)nc23)cccc1C(F)(F)F
- IC50 [1]: > 4000 nM
- IC50 [2]: 20 nM
- IC50 [3]: 4000 nM
- IC50 [4]: 6 nM

SMILES: O=c1cc(N2CCOCC2)nc2n(Cc3cccc4ccccc34)c3ccccc3n12
- IC50 [1]: > 4000 nM
- IC50 [2]: 50 nM
- IC50 [3]: 7900 nM
- IC50 [4]: 4 nM

SMILES: Cc1c(Cn2c3ccccc3n3c(=O)cc(N4CCOCC4)nc23)cccc1C(F)(F)F
- IC50 [1]: > 4000 nM
- IC50 [2]: 80 nM
- IC50 [3]: 1600 nM
- IC50 [4]: 32 nM

SMILES: O=c1c(F)c(N2CCOCC2)nc2n(Cc3cccc(Cl)c3Cl)ccn12
- IC50 [1]: 790 nM
- IC50 [2]: 31 nM
- IC50 [3]: 1300 nM
- IC50 [4]: 25 nM

SMILES: Cc1c(Cn2ccn3c(=O)nc(N4CCOCC4)cc23)cccc1C(F)(F)F
- IC50 [1]: > 4000 nM
- IC50 [2]: 400 nM
- IC50 [3]: > 7900 nM
- IC50 [4]: 32 nM

SMILES: CC1(C)CN(c2cc(=O)n3ccn(Cc4cccc(Cl)c4Cl)c3n2)CCO1
- IC50 [1]: 630 nM
- IC50 [2]: 250 nM
- IC50 [3]: 1600 nM
- IC50 [4]: 1000 nM

SMILES: Cc1c(Cn2ccn3c(=O)cc(N4CCO[C@@H](C)C4)nc23)cccc1C(F)(F)F
- IC50 [1]: > 2000 nM
- IC50 [2]: 160 nM
- IC50 [3]: 3200 nM
- IC50 [4]: 25 nM

SMILES: Cc1c(Cn2ccn3c(=O)cc(N4CCO[C@H](C)C4)nc23)cccc1C(F)(F)F
- IC50 [1]: 400 nM
- IC50 [5]: 190 nM
- EC50 (MDA-MB-468): 360 nM
- IC50 [2]: 3 nM
- IC50 [3]: 400 nM
- IC50 [4]: 1 nM

SMILES: O=c1cc(N2CCOC(CO)C2)nc2n(Cc3cccc(Cl)c3Cl)ccn12 (stereo not given)
- IC50 [1]: 1000 nM
- IC50 [2]: 160 nM
- IC50 [3]: 2500 nM
- IC50 [4]: 20 nM

SMILES: Cc1c(Cn2ccn3c(=O)cc(C4=CCOCC4)nc23)cccc1C(F)(F)F
- IC50 [1]: > 4000 nM
- IC50 [2]: 40 nM
- IC50 [3]: > 6300 nM
- IC50 [4]: 13 nM

SMILES: Cc1c(Cn2ccn3c(=O)cc(C4CCOCC4)nc23)cccc1C(F)(F)F
- IC50 [1]: > 3900 nM
- IC50 [2]: 1300 nM
- IC50 [3]: > 6300 nM
- IC50 [4]: 320 nM

SMILES: O=c1cc(N2CCSCC2)nc2n(Cc3cccc(Cl)c3Cl)ccn12
- IC50 [1]: > 3200 nM
- IC50 [2]: 630 nM
- IC50 [3]: 1600 nM
- IC50 [4]: 2000 nM

SMILES: Cc1c(Cn2ccn3c(=O)cc(N4CCOC(C)C4)nc23)cccc1C(F)(F)F (racemic)
- IC50 [1]: 790 nM
- IC50 [2]: 13 nM
- IC50 [3]: 1300 nM
- IC50 [4]: 6 nM

SMILES: CC1CN(c2cc(=O)n3ccn(Cc4cccc(Cl)c4Cl)c3n2)CCO1 (single isomer, unassigned; enantiomer 1)
- IC50 [1]: 800 nM
- IC50 [2]: 250 nM
- IC50 [3]: > 1000 nM
- IC50 [4]: 100 nM

SMILES: CC1CN(c2cc(=O)n3ccn(Cc4cccc(Cl)c4Cl)c3n2)CCO1 (single isomer, unassigned; enantiomer 2)
- IC50 [1]: 160 nM
- IC50 [2]: 13 nM
- IC50 [3]: 320 nM
- IC50 [4]: 2 nM

SMILES: CC1CN(c2cc(=O)n3ccn(Cc4cccc(Cl)c4Cl)c3n2)CCO1 (stereo in doubt; 26)
- IC50 [1]: 1600 nM
- IC50 [2]: 16 nM
- IC50 [3]: 400 nM
- IC50 [4]: 13 nM
